What was measured:
[1] = system: Klebsiella pneumonia NTUH-K2044
[2] = system: Botrytis cinerea; assay type: cell-based; settings: Bc; optimal minimal medium, crude peptides (Table 9)
[3] = system: Ralstonia solanacearum strain Pss190; settings: Rs Pss190; optimal minimal medium, crude peptides (Table 9)
[4] = system: Pseudomonas syringae pv. syringae strain B728a; settings: Pss B728a; Table 7
[5] = system: Eco DH5α; experiment: MIC and MBC by serial dilution in 96-well plate; assay type: cell-based, Escherichia coli; settings: Table 7
Outline: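 Log-phase bacteria in rich or minimal medium were adjusted to OD600=0.08, diluted 100-fold, and mixed 1:1 with 2-fold serial peptide dilutions (final 0–32 μg/mL). Plates were incubated at the optimal temperature without shaking. MBC is the lowest peptide concentration yielding no colonies.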

[6] = system: Xanthomonas oryzae pv. oryzae strain Xoo28; settings: Xoo Xoo28; Table 7
[7] = system: Cgl FST02; assay type: cell-based, Colletotricum gloeosporioides; settings: Cgl FST02; optimal minimal medium, crude peptides (Table 9)

With Ac-WKKLKKLLKKL-NH2 [pepD3] the MBC [1] was 16 µg/mL, the MIC [1] was 16 µg/mL and the MBC/MFC [2] was “— (“—” indicates no antimicrobial activity being detected at the highest peptide concentration (32 μg/mL) tested in this study.)”. For the same substance, the MIC [2] was “— (“—” indicates no antimicrobial activity being detected at the highest peptide concentration (32 μg/mL) tested in this study.)”, the MBC/MFC [3] was “— (“—” indicates no antimicrobial activity being detected at the highest peptide concentration (32 μg/mL) tested in this study.)” and the MIC [3] was “— (“—” indicates no antimicrobial activity being detected at the highest peptide concentration (32 μg/mL) tested in this study.)”. For the same substance, the MBC [4] was 16.0 µg/mL, the MIC [4] was 10.0 µg/mL and the MBC [5] was 13.5 µg/mL. For the same substance, the MIC [5] was 10.5 µg/mL, the MBC [6] was 4.4 µg/mL and the MIC [6] was 3.6 µg/mL. The MBC/MFC [7] was “— (“—” indicates no antimicrobial activity being detected at the highest peptide concentration (32 μg/mL) tested in this study.)” and the MIC [7] was “— (“—” indicates no antimicrobial activity being detected at the highest peptide concentration (32 μg/mL) tested in this study.)”.

Reference: US20240101602A1, “ANTIMICROBIAL PEPTIDES AND METHOD OF PREVENTING OR TREATING INFECTION BY USING THE SAME” (priority 2020, published 2024)
